Experiments:
Z-138 [1] = assay: Induction of apoptosis in human Z138 cells assessed as necrotic cells at 50.0 nM incubated for 168 hrs by Annexin V-FITC/PI staining based flow cytometric analysis (reference value: 3.54 %); format: functional
Z-138 [2] = assay: Induction of apoptosis in human Z138 cells assessed as viable cells at 50.0 nM incubated for 168 hrs by Annexin V-FITC/PI staining based flow cytometric analysis (reference value: 94.4 %); format: functional; settings: read-out: Activity
Z-138 [3] = assay: Induction of apoptosis in human Z138 cells assessed as necrotic cells at 0.4 nM incubated for 168 hrs by Annexin V-FITC/PI staining based flow cytometric analysis (reference value: 3.54 %); format: functional
[4] = Cmax in Sprague-Dawley rat at 10 mg/kg, po by LC-MS/MS analysis; format: ADME, organism-based; settings: Sprague-Dawley, in vivo, read-out: Cmax
Z-138 [5] = assay: Induction of apoptosis in human Z138 cells assessed as late apoptotic cells at 10.0 nM incubated for 168 hrs by Annexin V-FITC/PI staining based flow cytometric analysis (reference value: 0.37 %); format: functional
[6] = target: Voltage-gated inwardly rectifying potassium channel KCNH2 (Homo sapiens, UniProt Q12809); assay: Inhibition of human ERG; format: toxicity
Sequence of Voltage-gated inwardly rectifying potassium channel KCNH2 (Q12809 whole entry): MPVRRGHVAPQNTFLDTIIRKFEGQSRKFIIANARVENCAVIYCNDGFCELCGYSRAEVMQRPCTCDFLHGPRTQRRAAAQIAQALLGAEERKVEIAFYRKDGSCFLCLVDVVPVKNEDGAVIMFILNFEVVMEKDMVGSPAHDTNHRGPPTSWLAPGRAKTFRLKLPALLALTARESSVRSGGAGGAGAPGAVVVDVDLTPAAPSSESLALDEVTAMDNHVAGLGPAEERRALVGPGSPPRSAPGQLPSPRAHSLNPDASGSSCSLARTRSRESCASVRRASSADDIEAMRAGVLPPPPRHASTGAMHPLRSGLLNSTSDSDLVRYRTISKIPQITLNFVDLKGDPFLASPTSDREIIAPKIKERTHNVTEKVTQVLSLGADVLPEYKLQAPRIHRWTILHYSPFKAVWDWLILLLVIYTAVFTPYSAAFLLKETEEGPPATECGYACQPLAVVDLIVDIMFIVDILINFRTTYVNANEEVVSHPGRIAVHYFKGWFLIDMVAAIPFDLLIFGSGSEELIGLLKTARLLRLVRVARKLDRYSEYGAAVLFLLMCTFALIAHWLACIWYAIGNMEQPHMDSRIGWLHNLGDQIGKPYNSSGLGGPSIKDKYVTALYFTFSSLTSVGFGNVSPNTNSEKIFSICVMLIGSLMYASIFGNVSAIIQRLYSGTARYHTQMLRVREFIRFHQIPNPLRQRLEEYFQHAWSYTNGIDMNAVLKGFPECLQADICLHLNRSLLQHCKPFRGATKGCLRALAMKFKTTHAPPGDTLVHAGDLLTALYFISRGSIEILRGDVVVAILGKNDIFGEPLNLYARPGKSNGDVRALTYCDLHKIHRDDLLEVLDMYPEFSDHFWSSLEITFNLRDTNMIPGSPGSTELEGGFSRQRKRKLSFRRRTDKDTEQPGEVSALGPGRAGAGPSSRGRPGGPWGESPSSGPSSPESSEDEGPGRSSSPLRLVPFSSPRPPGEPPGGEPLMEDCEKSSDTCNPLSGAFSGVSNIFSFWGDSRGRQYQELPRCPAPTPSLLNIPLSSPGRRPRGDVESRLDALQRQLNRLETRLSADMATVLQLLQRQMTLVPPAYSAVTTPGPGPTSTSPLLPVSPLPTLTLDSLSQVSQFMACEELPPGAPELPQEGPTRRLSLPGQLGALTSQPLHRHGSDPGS

[7] = target: Protein arginine N-methyltransferase 6 (Homo sapiens, UniProt Q96LA8); assay: Inhibition of PRMT6 (unknown origin)
Sequence of Protein arginine N-methyltransferase 6 (Q96LA8 whole entry): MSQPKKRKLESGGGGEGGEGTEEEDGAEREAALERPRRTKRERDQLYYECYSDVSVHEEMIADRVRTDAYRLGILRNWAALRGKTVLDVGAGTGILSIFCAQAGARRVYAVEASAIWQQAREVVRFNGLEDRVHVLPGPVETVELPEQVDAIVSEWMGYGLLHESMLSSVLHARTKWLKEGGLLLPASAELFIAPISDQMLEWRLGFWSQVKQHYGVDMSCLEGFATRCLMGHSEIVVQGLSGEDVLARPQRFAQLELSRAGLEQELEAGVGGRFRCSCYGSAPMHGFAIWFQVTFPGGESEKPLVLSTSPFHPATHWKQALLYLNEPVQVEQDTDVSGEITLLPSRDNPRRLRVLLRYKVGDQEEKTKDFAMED

[8] = target: Protein arginine N-methyltransferase 8 (Homo sapiens, UniProt Q9NR22); assay: Inhibition of PRMT8 (unknown origin)
Sequence of Protein arginine N-methyltransferase 8 (Q9NR22 whole entry): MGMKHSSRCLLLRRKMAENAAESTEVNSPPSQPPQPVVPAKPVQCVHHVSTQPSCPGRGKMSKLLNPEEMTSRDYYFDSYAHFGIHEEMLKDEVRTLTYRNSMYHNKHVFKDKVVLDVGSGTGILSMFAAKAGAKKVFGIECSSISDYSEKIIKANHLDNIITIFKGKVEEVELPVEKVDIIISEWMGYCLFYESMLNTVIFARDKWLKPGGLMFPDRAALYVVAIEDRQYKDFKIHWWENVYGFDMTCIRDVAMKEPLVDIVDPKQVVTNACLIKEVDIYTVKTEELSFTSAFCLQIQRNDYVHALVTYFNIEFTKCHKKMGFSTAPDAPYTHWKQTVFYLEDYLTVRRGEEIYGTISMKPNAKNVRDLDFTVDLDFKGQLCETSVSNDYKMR

[9] = Hematological toxicity in human CD34-positive hematopoietic stem/progenitor cell supplemented with erythroid lineage assessed as reduction in cell viability incubated for 14 days by luminometric analysis; format: cell-based
Z-138 [10] = assay: Induction of apoptosis in human Z138 cells assessed as early apoptotic cells at 2.0 nM incubated for 168 hrs by Annexin V-FITC/PI staining based flow cytometric analysis (reference value: 1.68 %); format: functional
Z-138 [11] = assay: Induction of apoptosis in human Z138 cells assessed as necrotic cells at 2.0 nM incubated for 168 hrs by Annexin V-FITC/PI staining based flow cytometric analysis (reference value: 3.54 %); format: functional
[12] = target: T1, Histone-arginine methyltransferase CARM1 (Homo sapiens, UniProt Q86X55); assay: Inhibition of PRMT4 (unknown origin)
T1 sequence (Q86X55 whole entry): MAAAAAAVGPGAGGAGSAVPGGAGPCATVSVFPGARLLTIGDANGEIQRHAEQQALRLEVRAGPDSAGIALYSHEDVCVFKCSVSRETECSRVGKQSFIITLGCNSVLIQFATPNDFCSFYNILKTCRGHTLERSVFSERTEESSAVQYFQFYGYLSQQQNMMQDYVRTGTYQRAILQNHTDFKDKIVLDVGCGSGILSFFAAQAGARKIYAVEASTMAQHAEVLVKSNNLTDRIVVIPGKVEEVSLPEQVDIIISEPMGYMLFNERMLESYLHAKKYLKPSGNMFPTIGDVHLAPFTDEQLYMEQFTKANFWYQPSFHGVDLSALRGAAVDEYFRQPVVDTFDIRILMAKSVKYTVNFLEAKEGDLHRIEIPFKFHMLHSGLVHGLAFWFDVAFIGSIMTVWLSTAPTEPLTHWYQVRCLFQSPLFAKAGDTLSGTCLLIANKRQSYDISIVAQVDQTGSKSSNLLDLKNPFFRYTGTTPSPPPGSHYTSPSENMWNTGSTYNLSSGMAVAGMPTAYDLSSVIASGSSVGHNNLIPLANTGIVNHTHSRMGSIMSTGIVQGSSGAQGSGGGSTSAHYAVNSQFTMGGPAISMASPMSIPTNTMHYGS

Z-138 [13] = assay: Induction of apoptosis in human Z138 cells assessed as viable cells at 2.0 nM incubated for 168 hrs by Annexin V-FITC/PI staining based flow cytometric analysis (reference value: 94.4 %); format: functional; settings: read-out: Activity
Z-138 [14] = assay: Cell cycle arrest in human Z138 cells assessed as increase in DNA content at 50.0 nM incubated for 168 hrs by RNase A/PI staining based flow cytometric analysis relative to control; format: functional
Z-138 [15] = assay: Cell cycle arrest in human Z138 cells assessed as accumulation of cells at G0/G1 phase incubated for 168 hrs by RNase A/PI staining based flow cytometric analysis; format: functional; settings: dose 0.4-50 nM
[16] = Half-life in Sprague-Dawley rat at 10 mg/kg, po by LC-MS/MS analysis; format: ADME, organism-based; settings: Sprague-Dawley, in vivo
[17] = Hematological toxicity in human CD34-positive hematopoietic stem/progenitor cell supplemented with myeloid lineage assessed as reduction in cell viability incubated for 14 days by luminometric analysis; format: cell-based
Z-138 [18] = assay: Induction of apoptosis in human Z138 cells assessed as late apoptotic cells at 0.4 nM incubated for 168 hrs by Annexin V-FITC/PI staining based flow cytometric analysis (reference value: 0.37 %); format: functional
Z-138 [19] = assay: Induction of apoptosis in human Z138 cells assessed as early apoptotic cells at 50.0 nM incubated for 168 hrs by Annexin V-FITC/PI staining based flow cytometric analysis (reference value: 1.68 %); format: functional
[20] = Tmax in Sprague-Dawley rat at 10 mg/kg, po by LC-MS/MS analysis; format: ADME, organism-based; settings: Sprague-Dawley, in vivo, read-out: Tmax
Z-138 [21] = assay: Induction of apoptosis in human Z138 cells assessed as early apoptotic cells at 10.0 nM incubated for 168 hrs by Annexin V-FITC/PI staining based flow cytometric analysis (reference value: 1.68 %); format: functional
[22] = target: Protein arginine N-methyltransferase 1 (Homo sapiens, UniProt Q99873); assay: Inhibition of PRMT1 (unknown origin)
Sequence of Protein arginine N-methyltransferase 1 (Q99873 whole entry): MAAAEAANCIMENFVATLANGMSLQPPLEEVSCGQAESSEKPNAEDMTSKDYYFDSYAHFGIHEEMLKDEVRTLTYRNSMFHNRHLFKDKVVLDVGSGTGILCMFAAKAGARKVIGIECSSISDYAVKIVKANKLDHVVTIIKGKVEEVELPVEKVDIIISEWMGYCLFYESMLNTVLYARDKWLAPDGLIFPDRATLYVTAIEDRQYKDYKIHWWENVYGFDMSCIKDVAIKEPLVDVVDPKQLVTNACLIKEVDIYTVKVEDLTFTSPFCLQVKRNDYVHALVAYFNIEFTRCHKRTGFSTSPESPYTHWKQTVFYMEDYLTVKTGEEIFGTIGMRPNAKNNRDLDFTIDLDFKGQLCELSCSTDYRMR

Z-138 [23] = assay: Cell cycle arrest in human Z138 cells assessed as increase in DNA content at 0.4 nM incubated for 168 hrs by RNase A/PI staining based flow cytometric analysis relative to control; format: functional
[24] = AUC (0 to t) in Sprague-Dawley rat at 2 mg/kg, iv by LC-MS/MS analysis; format: ADME, organism-based; settings: in vivo
[25] = MRT (0 to t) in Sprague-Dawley rat at 10 mg/kg, po by LC-MS/MS analysis; format: ADME, organism-based; settings: in vivo
[26] = target: Protein arginine N-methyltransferase 3 (Homo sapiens, UniProt O60678); assay: Inhibition of PRMT3 (unknown origin)
Sequence of Protein arginine N-methyltransferase 3 (O60678 whole entry): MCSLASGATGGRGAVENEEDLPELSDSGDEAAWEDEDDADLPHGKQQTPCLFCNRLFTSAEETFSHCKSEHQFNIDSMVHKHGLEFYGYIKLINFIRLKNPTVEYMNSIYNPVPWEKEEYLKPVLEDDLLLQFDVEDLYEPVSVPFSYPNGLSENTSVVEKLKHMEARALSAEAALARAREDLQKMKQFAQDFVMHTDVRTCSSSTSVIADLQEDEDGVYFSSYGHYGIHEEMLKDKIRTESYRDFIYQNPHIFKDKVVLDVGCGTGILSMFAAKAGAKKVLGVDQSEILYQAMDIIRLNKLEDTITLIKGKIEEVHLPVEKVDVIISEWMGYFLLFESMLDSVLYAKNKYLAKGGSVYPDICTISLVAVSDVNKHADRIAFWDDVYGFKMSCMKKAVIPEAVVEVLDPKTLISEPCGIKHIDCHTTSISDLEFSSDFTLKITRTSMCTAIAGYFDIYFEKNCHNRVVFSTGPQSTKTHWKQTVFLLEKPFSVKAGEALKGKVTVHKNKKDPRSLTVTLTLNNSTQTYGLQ

Z-138 [27] = assay: Induction of apoptosis in human Z138 cells assessed as necrotic cells at 10.0 nM incubated for 168 hrs by Annexin V-FITC/PI staining based flow cytometric analysis (reference value: 3.54 %); format: functional
Z-138 [28] = assay: Induction of apoptosis in human Z138 cells assessed as late apoptotic cells at 50.0 nM incubated for 168 hrs by Annexin V-FITC/PI staining based flow cytometric analysis (reference value: 0.37 %); format: functional
[29] = MRT (0 to t) in Sprague-Dawley rat at 2 mg/kg, iv by LC-MS/MS analysis; format: ADME, organism-based; settings: in vivo
Z-138 [30] = assay: Induction of apoptosis in human Z138 cells assessed as viable cells at 0.4 nM incubated for 168 hrs by Annexin V-FITC/PI staining based flow cytometric analysis (reference value: 94.4 %); format: functional; settings: read-out: Activity
[31] = AUC (0 to t) in Sprague-Dawley rat at 10 mg/kg, po by LC-MS/MS analysis; format: ADME, organism-based; settings: Sprague-Dawley, in vivo

Row | SMILES | Activity (Z-138 [1]) [%] | viability at 0.05 µM (Z-138 [2]) [%] | Activity (Z-138 [3]) [%] | Cmax [4] [ng/mL] | Activity (Z-138 [5]) [%] | IC50 [6] [µM] | IC50 [7] [µM] | IC50 [8] [µM] | IC50 at 14 days [9] [µM] | Activity (Z-138 [10]) [%] | Activity (Z-138 [11]) [%] | IC50 [12] [µM] | viability at 0.002 µM (Z-138 [13]) [%] | Activity (Z-138 [14]) [%] | Activity (Z-138 [15]) | half-life [16] [min] | IC50 at 14 days [17] [µM] | Activity (Z-138 [18]) [%] | Activity (Z-138 [19]) [%] | Tmax [20] [min] | further results
1 | CC(=O)N1CCC(Nc2cc(C(=O)NC[C@H](O)CN3CCc4ccccc4C3)ncn2)CC1 [PEMRAMETOSTAT] | 5.13 | 53.4 | 2.52 | 355 | 1.53 | > 15 | > 10 | > 10 | 0.043 | 1.97 | 2.64 | > 10 | 95.1 | 59.2 | Dose-dependent-effect | 36 | 0.222 | 0.33 | 34.1 | 78 | Activity (Z-138 [21]): 7.12%; IC50 [22]: > 10 µM; Activity (Z-138 [23]): 50.9%; AUC(0-t) [24]: 598 ng·h/mL; MRT last [25]: 66 min; IC50 [26]: > 10 µM; Activity (Z-138 [27]): 5.31%; Activity (Z-138 [28]): 7.38%; MRT last [29]: 24 min; viability at 0.0004 µM (Z-138 [30]): 95.6%; AUC(0-t) [31]: 404 ng·h/mL
2 | CC(=O)N1CC2(CC(Nc3cc4c(cn3)C3(CC3)CN(C[C@H](O)CN3CCc5ccccc5C3)C4=O)C2)C1 | 2.87 | 7.61 | 2.41 | 894 | 32.4 | > 15 | > 10 | > 10 | 0.216 | 22 | 6.68 | > 10 | 62.1 | 71.6 | Dose-dependent-effect | 132 | 0.511 | 0.44 | 78.2 | 6 | Activity (Z-138 [21]): 54.5%; IC50 [22]: > 10 µM; Activity (Z-138 [23]): 52.4%; AUC(0-t) [24]: 771 ng·h/mL; MRT last [25]: 102 min; IC50 [26]: > 10 µM; Activity (Z-138 [27]): 3.87%; Activity (Z-138 [28]): 11.4%; MRT last [29]: 30 min; viability at 0.0004 µM (Z-138 [30]): 95.3%; AUC(0-t) [31]: 1030 ng·h/mL

— ChEMBL document CHEMBL6087464, “Design, Synthesis, and Biological Evaluation of 3,4-Dihydroisoquinolin-1(2H)-one Derivatives as Protein Arginine Methyltransferase 5 Inhibitors for the Treatment of Non-Hodgkin's Lymphoma” (J Med Chem, 2025)
